BindingDB's records for doi:10.1016/j.bmcl.2003.09.092 (Virginia Commonwealth University, 2003)

Assay: Binding affinity for rat imidazoline receptor I-1 from crude P2 membranes

Ki: 10 nM
Compound: C(=C\c1ccccc1)/C1=NCCN1 [2-((E)-Styryl)-4,5-dihydro-1H-imidazole]
